We go through one molecule from US20230255970A1, “COMPOSITIONS AND METHODS FOR TREATING PROLIFERATIVE DISEASES” (The Broad Institute, Inc., priority 2020, published 2023).

For data set [1], the system named is KP230, TC32, STS-109, HT-1080, HCT-116 cells. Nature of the data set: Trypan blue staining toxicity in the proliferation assay cell lines. Conditions: all tested cell lines. Format: cell-based. The method, then:
(§1) NB4A treatment: Cells were treated with 10 μM of each inhibitor or an equivalent volume of DMSO every 24 hours for 3-8 days, and counted with a hemocytometer with trypan blue exclusion daily (KP230, HT-1080, TC32, HCT-116), or every 2 days (STS-109).

Data set [2] concerns TEAD luciferase reporter. Kind of data set: YAP1-responsive TEAD luciferase reporter assay in HEK293T cells. Format: cell-based. Conditions: 10 μM, 48 h, HEK-293 cells. On the procedure: A TEAD luciferase reporter was co-transfected with or without a Yap expression construct into HEK293T cells followed by treatment for 48 hours with DMSO or the indicated compounds. The data shown are the average of three samples within a representative experiment.
YAP1-related reporter assay: HEK293T cells were co-transfected using Lipofectamine 3000 (Thermo Fisher) with a TEAD luciferase reporter construct, 8×GTIIC-luciferase (Addgene plasmid #34615), a plasmid expressing Renilla Luciferase from a CMV promoter as a transfection control, along with a plasmid expressing 3×Flag-tagged wild-type YAP1 from a CMV promoter (pCMV5 backbone). Following transfection the cells were immediately treated with 0.2% DMSO, 10 μM NB4A, BRD-K34692511 or BRD-K28862419 and then lysed 48 hours later. Lysates were examined using the Dual-Luciferase Reporter Assay System (Promega) according to the manufacturer's protocol and measured using a SpectraMax iD3 plate reader (Molecular Devices). Firefly Luciferase activity from the TEAD reporter was normalized to Renilla Luciferase activity and then plotted as relative values.
(In general: In a reporter assay the amount or activity of a reporter protein is the signal.)

For data set [3], the system named is Yap1. Kind of data set: Yap1 protein levels in KP230 cells (western blot, immunofluorescence). The data set is classed as cell-based, mouse. Conditions: 72 hours. The text has this: (§2) YAP1 cell culture and treatments: Eisinger lab: Murine KP230 cells, a Yap1-dependent cancer cell line, were derived from a tumor from the KP mouse model (Kras^G12/D; Trp53^f/fl), as described in Eisinger-Mathason, T. S. K. et al., Proc. Natl. Acad. Sci. U.S.A 112 (2015): E3402-11, which is hereby incorporated by reference in its entirety. STS-109 UPS cells were derived from a human UPS tumor and validated by Rebecca Gladdy, MD (Sinai Health System, Toronto, Ontario, Canada). TC32 cells were a gift from Patrick Grohar, MD, PhD (Children's Hospital of Philadelphia). HT-1080, HCT-116, and HEK293T cells were purchased from ATCC. KP230, HT-1080, and HEK-293T cells were grown in DMEM with 10% FBS, 1% L-glutamine, and 1% penicillin/streptomycin (P/S). STS-109 cells were cultured in DMEM with 20% FBS, 1% L-glutamine, and 1% P/S. TC32 cells were grown in RPMI with 10% FBS, 1% L-glutamine, and 1% P/S. HCT-116 cells were cultured in McCoy's 5A medium with 10% FBS and 1% P/S. All cells were confirmed to be negative for mycoplasma contamination and were maintained in an incubator at 37C with 5% CO2. […]
YAP1-related Western blotting: The cells were lysed in RIPA buffer (Pierce) supplemented with Halt Protease inhibitor cocktail and Halt Phosphatase inhibitor cocktail. […] The protein concentration of each sample was quantified using the Pierce BCA protein assay (Thermo Fisher). […]
(In western blotting, separated proteins are transferred to a membrane and probed.)

Data set [4] deals with HT-1080 fibrosarcoma cells. Kind of data set: Proliferation assay, HT-1080 cells. Format: cell-based, human. Conditions: 10 μM daily for 72 hours.
Text: as §2, §1

Data set [5] relates to U2OS cells. Nature of the data set: Cell count in U2OS Cell Painting images. Format: cell-based, human. Conditions: U2OS Cell Painting. The gist of the method:
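Compound-treated U2OS cells were stained with six fluorescent labels and imaged, and morphological profiles were standardized plate-wise against controls. Replicate profiles were averaged into signatures. Compound and gene-overexpression signatures were matched by Pearson correlation.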

Data set [6] has as its system TC32 human Ewing's family sarcoma cells. Kind of data set: Proliferation assay, TC32 cells. The data set is classed as cell-based. Conditions: 10 μM daily for 72 hours.
Text: as §2, §1

`c1ccc(CNc2ncnc3ccccc23)cc1` [BRD-K43796186, N-benzylquinazolin-4-amine]: the “toxicity by trypan blue staining” value in data set [1] is reported as “did not exhibit overt toxicity”. In data set [2], the “YAP1-responsive (TEAD) reporter activity” value was “no effect”. In data set [3], the Yap1 protein levels entry was “reduced”. The proliferation entry in data set [4] is “did not affect the proliferation”; in data set [6], “inhibited the proliferation”. The “Avg. Cell Count z-score” value in data set [5] is −0.5708.
